Source: US5281717A, “Epoxysuccinamic acid derivatives” (Taisho Pharmaceutical Co., Ltd., priority 1990, dated 1994)
Read-outs that look alike come from different tables or passages of the source.

How the values were obtained:
Assay type in all cases: biochemical
papain = target: T1, papain (Carica papaya, UniProt P00784); experiment: Inhibitory Activity Against Papain
T1 construct: purchased Sigma Chemical Co
T1 sequence (P00784 134-345): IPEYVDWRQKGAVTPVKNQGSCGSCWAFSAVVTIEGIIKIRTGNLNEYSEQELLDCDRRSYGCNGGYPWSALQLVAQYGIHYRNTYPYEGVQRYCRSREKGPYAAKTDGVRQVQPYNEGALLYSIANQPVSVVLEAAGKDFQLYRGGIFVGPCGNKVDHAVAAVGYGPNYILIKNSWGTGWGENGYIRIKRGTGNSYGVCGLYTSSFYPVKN
Method: (§1) The inhibitory activities against papain, CANP and cathepsin B were measured according to the following methods, and results are shown in Table 1.
The measurement was carried out according to the method of A. J. Barrett et al [Biochem. J., vol. 201, p. 189 (1982)].
To each of 0.95 ml of the reaction solutions containing 2.5 mM 2-mercaptoethanol, 1 mM disodium ethylenediaminetetraacetate, 0.1 M sodium potassium phosphate buffer (pH 6.8), 0.1% Brij-35 (produced by Nacalai Tesque Inc.), 1% dimethyl sulfoxide and various concentrations of the test drug was added 25 μl of a papain solution (produced by Sigma Chemical Co.), and the mixture was preincubated at 40° C. for 3 minutes, after which 25 μl of 200 μM benzyloxycarbonyl-L-phenylalanyl-L-arginine 4-methylcoumaryl-7-amide (produced by Peptide Institute Inc.) was added for starting the reaction After incubation at 40° C. for 10 minutes, the reaction was stopped by addition of 1 ml of 100 mM sodium acetate buffer solution (pH 4.3) containing 100 mM sodium chloroacetate. The fluorescence of the liberated 7-amino-4-methylcoumarine was determined using a Shimazu fluorometer RF-5000 with excitation at 380 nm and emission measured at 440 nm. […]

μ CANP (Calpain I) = target: T2, μ CANP (Calpain I) (Homo sapiens, UniProt P07384); experiment: Inhibitory Activity Against CANP; conditions: pH 7.5, 30° C., preincubated 5 minutes, incubation 20 minutes, alkali-denatured casein
T2 construct: purchased Nacalai Tesque Inc
T2 sequence (P07384 2-714 limits assumed): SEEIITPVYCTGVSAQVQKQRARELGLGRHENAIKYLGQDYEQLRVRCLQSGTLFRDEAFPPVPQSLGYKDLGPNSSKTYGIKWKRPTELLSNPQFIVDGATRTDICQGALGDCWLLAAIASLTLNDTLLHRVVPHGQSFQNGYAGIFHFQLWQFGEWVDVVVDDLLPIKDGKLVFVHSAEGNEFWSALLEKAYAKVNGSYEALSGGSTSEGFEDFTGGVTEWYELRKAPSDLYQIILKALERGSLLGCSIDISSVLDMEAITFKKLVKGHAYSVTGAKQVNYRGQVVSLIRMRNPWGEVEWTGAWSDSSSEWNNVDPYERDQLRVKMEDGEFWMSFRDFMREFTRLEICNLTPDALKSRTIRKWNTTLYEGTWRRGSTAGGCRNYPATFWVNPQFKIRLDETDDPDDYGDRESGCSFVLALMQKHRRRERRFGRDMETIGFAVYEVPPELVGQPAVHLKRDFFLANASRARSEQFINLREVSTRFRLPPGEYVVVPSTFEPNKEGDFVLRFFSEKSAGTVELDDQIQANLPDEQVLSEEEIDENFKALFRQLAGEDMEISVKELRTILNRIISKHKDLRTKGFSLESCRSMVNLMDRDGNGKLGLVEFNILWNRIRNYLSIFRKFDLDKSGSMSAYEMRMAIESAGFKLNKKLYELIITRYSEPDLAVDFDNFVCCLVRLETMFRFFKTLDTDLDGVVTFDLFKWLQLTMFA
T2 sequence (P04632 1-268 partner): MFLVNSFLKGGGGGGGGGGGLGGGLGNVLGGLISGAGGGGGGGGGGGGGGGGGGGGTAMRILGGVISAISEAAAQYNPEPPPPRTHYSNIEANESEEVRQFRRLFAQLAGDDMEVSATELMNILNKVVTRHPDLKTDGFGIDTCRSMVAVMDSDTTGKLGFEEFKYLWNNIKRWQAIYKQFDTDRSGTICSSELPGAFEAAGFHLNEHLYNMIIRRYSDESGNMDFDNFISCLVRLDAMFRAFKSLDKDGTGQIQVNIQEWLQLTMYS
Method: as §1
The measurement was carried out according to the method of S. Ishiura et al (J. Biochem., vol. 84, p. 225 (1978)].
Each of 0.45 ml of the reaction solutions containing 25 mM 2-mercaptoethanol, 5 mM calcium chloride, 0.1 M sodium glycerophosphate-HCl buffer (pH 7.5), 0.24% alkali-denatured casein, 1% dimethylsulfoxide and various concentrations of the test drug was preincubated accurately at 30° C. for 5 minutes, and 50 μl of a solution containing 5 μg of μ CANP (Calpain I, produced by Nacalai Tesque Inc.) was added for starting the reaction. After exact incubation at 30° C. for 20 minutes, the reaction was stopped by addition of 0.5 ml of 10% trichloroacetic acid. After being allowed to stand at room temperature for 60 minutes, the mixture was centrifuged at 3000 × g for 5 minutes, and the absorbance at 280 nm of the supernatant was determined. The remaining activity was obtained by reducing the blank value which was obtained in a similar manner to the above but adding 10% trichloroacetic acid prior to addition of μ CANP from the above value. […]

cathepsin B = target: T3, cathepsin B (Homo sapiens, UniProt P07858); experiment: Inhibitory Activity against Cathepsin B; conditions: pH 6.0, 40° C., preincubated 3 minutes, incubation 10 minutes, substrate benzyloxycarbonyl-L-phenylalanyl-L-arginine 4-methylcoumaryl-7-amide
T3 construct: purchased Sigma Chemical Co
Method: To each of 0.95 ml of the reaction solutions containing 2.5 mM 2-mercaptoethanol, 1 mM disodium ethylenediaminetetraacetate, 0.1 M sodium potassium phosphate buffer (pH 6.0), 0.1% Brij-35 (produced by Nacalai Tesque Inc.), 1% dimethyl sulfoxide and various concentrations of the test drug was added 25 μl of 200 nM cathepsin B solution (produced by Sigma Chemical Co.), and the mixture was preincubated at 40° C. for 3 minutes, after which 25 μl of 200 μM benzyloxycarbonyl-L-phenylalanyl-L-arginine 4-methylcoumaryl-7-amide (produced by Peptide Institute Inc.) was added for starting the reaction After incubation at 40° C. for 10 minutes, the reaction was stopped by addition of 1 ml of 100 mM sodium acetate buffer (pH 4.3) containing 100 nM sodium chloroacetate. The fluorescence of the liberated 7-amino-4-methyl-coumarine was determined using a Shimazu fluorometer RP-5000 with excitation at 380 nm and emission measured at 440 nm.

Structure (SMILES) | IC50 (papain; pH 6.8, 40° C., preincubated 3 minutes, incubation 10 minutes, substrate benzyloxycarbonyl-L-phenylalanyl-L-arginine 4-methylcoumaryl-7-amide, read-out: Inhibitory Activity Value [IC50 (nM)] Papain) [nM] | IC50 (μ CANP (Calpain I)) [nM] | IC50 (papain) [nM] | IC50 (cathepsin B) [nM]
CCCNC(=O)[C@H]1O[C@@H]1C(=O)N[C@H](C(=O)N1CCC[C@H]1C(=O)O)[C@@H](C)CC [Compound 1d, N-(L-3-trans-n-propylcarbamoyloxirane-2-carbonyl)-L-isoleucyl-L-proline] | 57400 | > 200000 | – | –
CCCCCNC(=O)[C@H]1O[C@@H]1C(=O)N[C@H](C(=O)N1CCC[C@H]1C(=O)O)[C@@H](C)CC [Compound 8d] | – | > 200000 | 26000 | 32
